In paper PMC4563558, “Discovery of a series of novel phenylpiperazine derivatives as EGFR TK inhibitors” (Scientific Reports, 2015):

What was measured:
[1] = biological target: PDGFR; assay: Kinase selectivity assay (kit), PDGFR; assay type: biochemical; conditions: read-out: Inhibition of PDGFR IC50
Procedure: (§1) To validate whether the above anti-proliferative effect was produced by interaction of EGFR protein and the synthesized compounds, the synthesized compounds were evaluated for their abilities to inhibit the activity of four protein kinases relevant to cancer: EGFR, VEGFR2, bFGF, PDGFR. […] Additionally, the activity data inferred that the IC50 values of these compounds shared a similar tendency with their relevant IC50 values of anti-proliferative assay. […] Therefore, we could conclude that the synthesized inhibitors can inhibit the function of EGFR and the anti-proliferative effect was produced partly by interaction of EGFR protein and the compounds.
(§2) The EGFR, VEGFR2, bFGF and PDGFR Kinase Assay Kit were purchased from Bio-Swamp. The experiments were performed according to the manufacturer’s instructions.

[2] = biological target: bFGF; assay: Kinase selectivity assay (kit), bFGF; assay type: biochemical; conditions: read-out: Inhibition of bFGF IC50
Procedure: as §1, §2

[3] = in vitro; assay type: cell-based; conditions: mouse
Procedure: The cytotoxic activity in vitro was measured against mouse fibroblast NIH-3T3 cells using the MTT assay. Cells were cultured in a 96-well plate at a density of 5 × 10^5 cells and different concentrations of compounds were respectively added to each well. The incubation was permitted at 37 °C, 5% CO2 atmosphere for 24 h before the cytotoxicity assessments. 20 μL MTT reagent (4 mg/mL) was added per well 4 h before the end of the incubation. Four hours later, the plate was centrifuged at 1200 rcf for 5 min and the supernatants were removed, each well was added with 200 μL DMSO. The absorbance was measured at a wavelength of 490 nm (OD 490 nm) on an ELISA microplate reader. Three replicate wells were used for each concentration and each assay was measured three times, after which the average of IC50 was calculated.

[4] = system: Lung cells; assay: MTT assay, human normal lung cell line; assay type: cell-based; conditions: read-out: IC50 ± SD, Lung cells
Procedure: (§3) To test the antiproliferative activities of the synthesized compounds (see supplementary Scheme S1 and S2), the target compounds were evaluated in vitro antiproliferation assays against three human cancer cell lines (MCF-7, HeLa and A549) and one human normal lung cell line.
(§4) The in vitro anticancer activities of the prepared compounds against MCF-7, HeLa and A549 cell lines were evaluated as described in the literature[23] with some modifications. Target tumor cells were grown to log phase in DMEM medium supplemented with 10% fetal bovine serum. After reaching a dilution of 1 × 10^5 cells mL^−1 with the medium, 100 μL of the obtained cell suspension was added to each well of 96-well culture plates. Subsequently, incubation was performed at 37 °C in 5% CO2 atmosphere for 48 h before the cytotoxicity assessment. Tested samples at preset concentrations were added to 6 wells with Erlotinib being employed as a positive reference. After 72 h exposure period, 25 μL of PBS containing 2.5 mg mL^−1 of MTT was added to each well. After 4 h, the medium was replaced by 150 μL DMSO to dissolve the purple formazan crystals produced. The absorbance at 570 nm of each well was measured with an ELISA plate reader. The data represented the mean of three independent experiments in triplicate and were expressed as means ± SD. The IC50 value was defined as the concentration at which 50% of the cells could survive.

[5] = Acute oral toxicity, bodyweights; assay type: in vivo; conditions: mice
Procedure: Before the acute toxicity experiment, mice were stopped being served food but water was kept for 3 h. The test substances were dissolved in maize germ oil[24]. The preliminary experiment was performed as follows: Four dose levels, 100, 500, 2000, and 5000 mg/kg body weight and three mice for each level were used. We observed the death and evident toxicity in 7 days to determine the general concentration range. Then the administration doses were graded with geometric progression for ease of the calculation of LD50. Mice were randomly divided into groups (10 mice/group). […] The control groups received maize germ oil only. After the administration, food was withheld for 2 h.

[6] = system: MCF-7, HeLa and A549 cell lines; assay: Anticancer activities discussed in text (cell line not specified); assay type: cell-based, human; conditions: comparison within series and with positive control
Procedure: According to the data presented in Table 1, it could be concluded that the activity of the tested compounds may be correlated to the variation and modifications of structure.
as §4

[7] = system: A549 cells; assay: Tumor volume in nude mice inoculated with A549 cells; assay type: in vivo; conditions: for Test/Control (tumor volume): 40 mg/kg/2 days
Procedure: To further evaluate the antitumor effect of compound 3p in vivo, we performed an animal study. Mice were inoculated subcutaneously with A549 cells (5.0 × 10^6) on their shoulders. […]. […] […].
Male BALB/c nude mice, 35–40 days old and weighing 18–22 g, were supplied by Shanghai Laboratory Animal Limited Company. The mice were raised in air-conditioned rooms under controlled lighting (12 h lighting/day) and were fed with standard laboratory food and water ad libitum. Before injection into the mice, the lung cancer cells (A549) were harvested by trypsinization and washed three times with cold serum-free medium and then injected in a total volume of 0.1 mL using a 1-mL latex-free syringe (BD) within 30 min of harvest. Mice were inoculated subcutaneously with A549 cells (5.0 × 10^6) on their shoulders. When the tumor had increased to 100 mm^3 , the mice were equally randomized into 4 groups (with 6 mice/group): saline tumor control group; compound 3p 20 mg/kg/2 days group; compound 3p 40 mg/kg/2 days group; […]. The control group received 0.9% normal saline. Tumor size was measured once every 2 days in two per-pendicular dimensions with Vernier calipers and converted to tumor volume (TV) using the formula: (ab^2)/2, where a and b refer to the longer and shorter dimensions, respectively. The body weight of the animals was measured twice a week at the same time as the tumor dimension measurement and the mortality was monitored daily. After the treatments, all mice were killed and weighed simultaneously, and then tumor was segregated and weighed.

[8] = system: HeLa; assay: MTT antiproliferation assay, HeLa; assay type: cell-based; conditions: Homo sapiens, 72 h exposure, read-out: IC50 ± SD, HeLa
Procedure: as §3, §4

[9] = system: MCF-7; assay: MTT antiproliferation assay, MCF-7; assay type: cell-based; conditions: Homo sapiens, MCF7, 72 h exposure, read-out: IC50 ± SD, MCF-7
Procedure: as §3, §4

[10] = system: Erythrocytes; assay: Hemolysis test; assay type: cell-based; conditions: human erythrocytes, 3 h incubation
Procedure: Hemolytic activity was assayed using fresh capillary human blood. Erythrocytes were collected by centrifuging the blood three times in chilled phosphate buffered saline (PBS at 4 °C) at 1000 × g for 10 min. The final pellet was resuspended in PBS to give a 2% w/v solution. Using a microtitre plate, 100 μL of the erythrocyte solution was added to dextran, PLL, stearyl-PLL or stearyl-PLL+LDL (1–1000/μg/mL) in a volume of […]. Samples were then incubated for 3 h and the microtitre plate was centrifuged then at 1000 × g for 10 min and the supernatants (100 μL) transferred into a new microtitre plate. Hemoglobin release was determined spectrophotometrically using a microtitre plate reader (absorbance at 550 nm). Results were expressed as the amount of released hemoglobin induced by the compounds as a percentage of the total. Hemolysis test was tested according to the guide of biological evaluation of medical device (SFDA, China).

[11] = biological target: T1, EGFR (Homo sapiens, UniProt P00533); assay: Kinase selectivity assay (kit), EGFR; assay type: biochemical; conditions: read-out: Inhibition of EGFR IC50
T1 construct: purchased Bio-Swamp
T1 sequence (P00533 25-1210): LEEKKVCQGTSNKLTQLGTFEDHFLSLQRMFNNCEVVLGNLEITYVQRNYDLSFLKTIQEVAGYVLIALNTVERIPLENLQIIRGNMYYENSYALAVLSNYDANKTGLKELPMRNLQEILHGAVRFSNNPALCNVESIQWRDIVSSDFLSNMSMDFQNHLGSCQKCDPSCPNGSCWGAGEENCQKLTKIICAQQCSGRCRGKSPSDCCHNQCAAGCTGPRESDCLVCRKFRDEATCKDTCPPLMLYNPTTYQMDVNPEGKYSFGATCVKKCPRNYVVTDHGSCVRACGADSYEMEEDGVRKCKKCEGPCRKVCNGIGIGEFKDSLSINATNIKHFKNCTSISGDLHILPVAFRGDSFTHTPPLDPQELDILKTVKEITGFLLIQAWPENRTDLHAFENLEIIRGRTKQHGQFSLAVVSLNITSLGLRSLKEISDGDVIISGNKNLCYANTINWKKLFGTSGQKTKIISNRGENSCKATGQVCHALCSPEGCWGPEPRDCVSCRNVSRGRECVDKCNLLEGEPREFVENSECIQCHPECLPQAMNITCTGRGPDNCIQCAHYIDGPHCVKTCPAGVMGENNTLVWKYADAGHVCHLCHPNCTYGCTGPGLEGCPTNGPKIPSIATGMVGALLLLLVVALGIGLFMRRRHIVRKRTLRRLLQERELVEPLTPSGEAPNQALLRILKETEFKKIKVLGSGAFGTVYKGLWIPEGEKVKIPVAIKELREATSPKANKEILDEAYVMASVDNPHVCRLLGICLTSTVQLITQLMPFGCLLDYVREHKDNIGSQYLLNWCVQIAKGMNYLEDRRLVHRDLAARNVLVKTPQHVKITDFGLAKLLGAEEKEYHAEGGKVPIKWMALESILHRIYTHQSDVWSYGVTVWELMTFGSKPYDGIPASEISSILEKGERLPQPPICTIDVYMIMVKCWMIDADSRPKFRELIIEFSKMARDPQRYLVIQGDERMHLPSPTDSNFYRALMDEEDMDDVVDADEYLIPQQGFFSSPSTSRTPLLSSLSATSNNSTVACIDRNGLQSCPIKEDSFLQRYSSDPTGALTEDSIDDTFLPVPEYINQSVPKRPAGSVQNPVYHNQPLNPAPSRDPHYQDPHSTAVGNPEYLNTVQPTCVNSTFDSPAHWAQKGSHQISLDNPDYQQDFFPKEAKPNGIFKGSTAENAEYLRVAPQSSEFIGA
Procedure: as §2

[12] = system: A549; assay: MTT antiproliferation assay, A549; assay type: cell-based; conditions: Homo sapiens, 72 h exposure, read-out: IC50 ± SD, A549
Procedure: as §3, §4

[13] = biological target: T2, VEGFR2 (Homo sapiens, UniProt P35968); assay: Kinase selectivity assay (kit), VEGFR2; assay type: biochemical; conditions: read-out: Inhibition of VEGFR2 IC50
T2 construct: purchased Bio-Swamp
T2 sequence (P35968 20-1356, species assumed): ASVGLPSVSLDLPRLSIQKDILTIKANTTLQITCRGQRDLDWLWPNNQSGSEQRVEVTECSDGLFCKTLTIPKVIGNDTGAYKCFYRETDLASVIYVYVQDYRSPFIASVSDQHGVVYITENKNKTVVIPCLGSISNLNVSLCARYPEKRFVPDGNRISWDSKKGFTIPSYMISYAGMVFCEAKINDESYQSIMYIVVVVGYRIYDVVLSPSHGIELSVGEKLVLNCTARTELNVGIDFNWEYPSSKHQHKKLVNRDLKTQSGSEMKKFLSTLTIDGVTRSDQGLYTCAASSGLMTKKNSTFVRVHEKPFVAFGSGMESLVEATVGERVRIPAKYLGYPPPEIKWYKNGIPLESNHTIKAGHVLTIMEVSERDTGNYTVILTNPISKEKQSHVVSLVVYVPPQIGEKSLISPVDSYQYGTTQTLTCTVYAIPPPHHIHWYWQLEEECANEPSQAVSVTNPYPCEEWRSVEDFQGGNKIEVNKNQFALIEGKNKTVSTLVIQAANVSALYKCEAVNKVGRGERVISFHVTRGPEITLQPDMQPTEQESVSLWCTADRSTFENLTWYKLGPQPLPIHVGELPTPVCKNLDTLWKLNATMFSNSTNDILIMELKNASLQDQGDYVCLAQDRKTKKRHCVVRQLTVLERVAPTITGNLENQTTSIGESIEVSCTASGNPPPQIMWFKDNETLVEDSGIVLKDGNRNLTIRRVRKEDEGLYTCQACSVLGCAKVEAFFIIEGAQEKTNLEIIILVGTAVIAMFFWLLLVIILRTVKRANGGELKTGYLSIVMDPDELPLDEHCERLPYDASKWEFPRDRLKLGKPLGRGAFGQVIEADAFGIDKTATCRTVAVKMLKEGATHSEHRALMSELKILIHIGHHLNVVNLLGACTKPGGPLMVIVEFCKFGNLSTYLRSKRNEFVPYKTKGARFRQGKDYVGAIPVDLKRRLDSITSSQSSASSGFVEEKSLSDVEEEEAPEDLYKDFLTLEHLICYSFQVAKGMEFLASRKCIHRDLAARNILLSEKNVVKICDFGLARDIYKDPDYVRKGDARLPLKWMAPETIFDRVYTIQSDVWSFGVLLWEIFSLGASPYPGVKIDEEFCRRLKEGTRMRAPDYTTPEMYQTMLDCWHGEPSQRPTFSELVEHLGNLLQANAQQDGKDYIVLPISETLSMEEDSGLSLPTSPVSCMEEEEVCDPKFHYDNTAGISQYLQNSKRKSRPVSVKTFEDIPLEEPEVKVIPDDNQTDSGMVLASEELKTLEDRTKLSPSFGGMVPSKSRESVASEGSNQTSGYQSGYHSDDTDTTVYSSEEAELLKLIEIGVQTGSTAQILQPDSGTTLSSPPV
Procedure: as §1, §2

Question: Which IC50 [1] does the source give for `COc1cc(OC)nc(NC(=O)CN2CCN(c3ccc(Cl)c(Cl)c3)CC2)n1` [3p, 2-(4-(3,4-dichlorophenyl)piperazin-1-yl)-N-(4,6-dimethoxypyrimidin-2-yl)acetamide] here?
Answer: 17300 ± 950 nM

Question: And the IC50 [2]?
Answer: 27100 ± 3170 nM

Question: What about the IC50 at 24 h [3] of the same molecule?
Answer: 239000 ± 4030 nM

Question: What about the IC50 [4] of the same molecule?
Answer: 189000 ± 3820 nM

Question: What about the “Bodyweights 0 day ± SD” value ([5]; day 0) of the same molecule?
Answer: 22.12 ± 1.13 g

Question: And the “Bodyweights 7 days ± SD” value ([5]; day 7)?
Answer: 27.33 ± 1.08 g

Question: What about the “Anticancer / antitumor activity (in words)” value [6] of the same molecule?
Answer: most potent anticancer activities

Question: What about the Weight of tumor ([7]; 40 mg/kg, day 14) of the same molecule?
Answer: significantly reduced

Question: What about the “Test/Control (tumor volume)” value ([7]; day 4) of the same molecule?
Answer: 42.79%

Question: What about the “Test/Control (tumor volume)” value ([7]; day 6) of the same molecule?
Answer: 49.61%

Question: And the “Test/Control (tumor volume)” value ([7]; day 8)?
Answer: 50.79%

Question: What about the “Test/Control (tumor volume)” value ([7]; day 10) of the same molecule?
Answer: 60.00%

Question: And the “Test/Control (tumor volume)” value ([7]; day 12)?
Answer: 61.22%

Question: What about the “Effect on mice body weight” value ([7]; 14-day treatment, nude mice) of the same molecule?
Answer: did not observe significant growth inhibition of mice body weight

Question: And the “Mortality during the treatment” value ([7]; mouse, in vivo)?
Answer: none of the mice died

Question: And the IC50 [8]?
Answer: 80 ± 0.2 nM

Question: And the IC50 [9]?
Answer: 220 ± 1 nM

Question: What about the “Hemolysis LC30 (lytic concentration 30%)” value [10] of the same molecule?
Answer: >10000 µg/mL

Question: And the IC50 [11]?
Answer: 20 ± 3 nM

Question: What about the IC50 [12] of the same molecule?
Answer: 50 ± 0.3 nM

Question: And the IC50 [13]?
Answer: 2150 ± 60 nM
